Experimental findings from US11352350B2, “IRAK degraders and uses thereof” (Kymera Therapeutics, Inc., priority 2018, dated 2022) are described below.

For assay [1], the target named is T1, IRAK4 (Homo sapiens (Human), UniProt Q9NWZ3). The assay can be described thus: hPBMC IRAK4 degradation flow assay. It counts as cell-based. The note with it: hPBMC monocyte. In short, it runs like this:
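Thawed human PBMCs treated with 10-point, 5-fold compound dilutions (0.1% DMSO) at 37° C. for 20 hours or 4 hours. IRAK4 measured by flow MFI in CD14+ monocytes and CD14− lymphocytes, normalized to DMSO and 10 μM 20-hour control; DC50 and max degradation from 4-parameter logistic fit.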

Assay [2] addresses T1, IRAK4. The assay can be described thus: IRAK4 MSD degradation in OCI-LY10. It counts as cell-based. The gist of the method:
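OCI-LY10 cells treated with 8-point 1:3 dilutions (top 1 to 10 μM final) for 4 to 24 h at 37° C. Lysate IRAK4 measured by MSD sandwich immunoassay (2H9 capture, Y279 detection, SULFO-TAG anti-rabbit). DC50 from three-parameter logistic fit.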

The subject of assay [3] is IL-6. The assay can be described thus: IL-6 secretion in hPBMC using R848 stimulation. It counts as cell-based, human. The following applies: Homo sapiens, 20 h, hPBMC, R848 as stim, t = 20 h.
The test system of assay [4] is OCI-LY10. The assay can be described thus: CTG Cell Viability Assay - OCI-LY10. It counts as cell-based, human. The note with it: Homo sapiens, OCI-Ly10, 96 h, OCI-LY10, 4 days; read-out: CTG Cell Viability Assay - OCI-LY10: Average external-IC50. The gist of the method: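 OCI-LY10 cells exposed to 9-dose, 1:3 dilutions from 10 μM top (0.2% DMSO) for 4 days at 37° C, 5% CO2. Viability by CellTiter-Glo luminescence; IC50 from three-parameter logistic fit.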

Where [5] appears, read: 20 hr, flow assay, read-out: IRAK4 degradation in hPBMC monocyte at 20 hr: Average external Abs DC50.
The mark [6] stands for this setting: OCI-LY10, 4 hrs, MSD, read-out: IRAK4 MSD degradation in OCI-LY10 at 4 hrs: Average external-Abs DC50.
[7] abbreviates: OCI-LY10, 24 hrs, MSD, read-out: IRAK4 MSD degradation in OCI-LY10 at 24 hrs: Average external-Abs DC50.
Where [8] appears, read: 20 hrs, read-out: IRAK4 degradation in hPBMC monocyte: DC50.
[9] abbreviates: OCI-LY10, 4 hrs, read-out: IRAK4 MSD degradation in OCI-LY10 at 4 hrs: DC50.

T1 sequence (Q9NWZ3 whole entry): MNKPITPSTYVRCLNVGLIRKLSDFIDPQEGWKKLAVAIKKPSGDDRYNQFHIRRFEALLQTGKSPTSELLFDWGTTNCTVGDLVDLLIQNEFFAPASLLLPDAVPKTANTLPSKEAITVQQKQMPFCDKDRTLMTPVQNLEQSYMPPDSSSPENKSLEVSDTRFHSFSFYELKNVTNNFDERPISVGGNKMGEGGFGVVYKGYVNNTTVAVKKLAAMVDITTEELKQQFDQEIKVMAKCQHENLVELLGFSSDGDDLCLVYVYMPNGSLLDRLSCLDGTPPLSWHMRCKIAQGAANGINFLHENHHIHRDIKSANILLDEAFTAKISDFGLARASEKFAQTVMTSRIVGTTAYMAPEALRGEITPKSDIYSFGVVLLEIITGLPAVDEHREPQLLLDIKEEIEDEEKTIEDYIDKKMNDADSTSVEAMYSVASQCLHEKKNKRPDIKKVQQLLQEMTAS

A word on the DC50: it is the midpoint of the concentration-degradation curve. In general, IC50 refers to the midpoint of a concentration-inhibition curve. For the compound `CC[C@@H]1[C@H](F)C(=O)N[C@@H]1COc1ncc(C#C[C@H]2CC[C@H](CN(C)CCCOCCCc3ccc4c(c3)n(C)c(=O)n4C3CCC(=O)NC3=O)CC2)c2cc(C(N)=O)c(OC)cc12` (stereo partly shown) [I-185], the DC50 is below 10 nM in assay [1] (setting [5]), 10 to 100 nM in assay [2] (setting [6]) and 10 to 100 nM in assay [2] (setting [7]). For the same compound, the IC50 in assay [3] was below 1 nM; in assay [4], above 1000 nM.
On to `CN(CC1CCN(c2cccc3c2C(=O)N(C2CCC(=O)NC2=O)C3=O)CC1)C[C@H]1CC[C@H](n2cc3cc(NC(=O)c4cccc(C(F)(F)F)n4)c(C(C)(C)O)cc3n2)CC1` (stereo partly shown) [I-317], for which the DC50 in assay [1] (setting [5]), in assay [2] (setting [6]) and in assay [2] (setting [7]) was 10 to 100 nM each time. Besides, the results for the IC50 in assay [3] and in assay [4] were 1 to 10 nM and above 1000 nM, respectively.
For the compound `CN(CC(CCCOCCCc1cccc2c1n(C)c(=O)n2C1CCC(=O)NC1=O)C(=O)O)C[C@H]1CC[C@H](n2cc(NC(=O)c3coc(-c4ccnc(NCC5CC5)c4)n3)c(C(F)F)n2)CC1` (stereo partly shown) [I-396, 2-[[[4-[4-[[2-[2-(Cyclopropylmethylamino)-4-pyridyl]oxazole-4-carbonyl]amino]-3-(difluoromethyl)pyrazol-1-yl]cyclohexyl]methyl-methyl-amino]methyl]-5-[3-[1-(2,6-dioxo-3-piperidyl)-3-methyl-2-oxo-benzimidazol-4-yl]propoxy]pentanoic acid], the 50% degradation concentration (DC50) in assay [1] (setting [5]) and in assay [2] (setting [6]) was 10 to 100 nM each time. In addition, the values for the concentration for half-maximal inhibition (IC50) in assay [3] and in assay [4] were 1 to 10 nM and 50 to 100 nM, respectively.
Regarding `CN(C[C@@H]1CN(Cc2cccc3c2n(C)c(=O)n3C2CCC(=O)NC2=O)CCO1)C[C@H]1CC[C@H](n2cc(NC(=O)c3cnn4ccc(N5C[C@H]6C[C@@H]5CO6)nc34)c(C(F)F)n2)CC1` (stereo partly shown) [I-411], the half-maximal degradation concentration (DC50) is 10 to 100 nM in assay [1] (setting [5]) and above 1000 nM in assay [2] (setting [6]). The IC50 in assay [3] was below 1 nM; in assay [4] it was above 1000 nM.
Consider `Cn1c(=O)n(C2CCC(=O)NC2=O)c2cccc(CCC(=O)N3CCC4(CC3)CN(C[C@H]3CC[C@H](n5cc(NC(=O)c6cnn7ccc(N8C[C@H]9C[C@@H]8CO9)nc67)c(C(F)F)n5)CC3)C4)c21` (stereo partly shown) [I-414], for which the half-maximal degradation concentration (DC50) in assay [1] (setting [5]) and in assay [2] (setting [6]) was below 10 nM throughout. In addition, the IC50 in assay [3] was below 1 nM; in assay [4], above 1000 nM.
For the compound `Cn1c(=O)n(C2CCC(=O)NC2=O)c2cccc(C[C@H]3CC[C@H](N(C)C[C@H]4CC[C@H](n5cc(NC(=O)c6cnn7ccc(N8C[C@H]9C[C@@H]8CO9)nc67)c(C(F)F)n5)CC4)CC3)c21` (stereo partly shown) [I-508], the DC50 in assay [1] (setting [8]) was below 10 nM. The concentration for half-maximal inhibition (IC50) in assay [3] was 1 to 10 nM; in assay [4], above 1000 nM.
On to `Cn1c(=O)n(C2CCC(=O)NC2=O)c2cccc(CN3CCN(CC[C@H]4CC[C@H](n5cc(NC(=O)c6cnn7ccc(N8C[C@H]9C[C@@H]8CO9)nc67)c(C(F)F)n5)CC4)CC3)c21` (stereo partly shown) [I-510], for which the DC50 in assay [1] (setting [8]) was below 10 nM. Besides, the IC50 is 1 to 10 nM in assay [3] and above 1000 nM in assay [4].
As to `C[C@@H]1CN(c2ccn3ncc(C(=O)Nc4cn([C@H]5CC[C@H](CN6CCC(CCCc7cccc8c7n(C)c(=O)n8C7CCC(=O)NC7=O)CC6)CC5)nc4C(F)F)c3n2)C[C@H](C)O1` (stereo partly shown) [I-540], the DC50 is below 10 nM in assay [1] (setting [8]) and 10 to 100 nM in assay [2] (setting [9]). In assay [3], this compound had a half-maximal inhibitory concentration (IC50) of 1 to 10 nM.
For `C[C@H]1CN(c2ccn3ncc(C(=O)NC4=NC([C@H]5CC[C@H](CN6CCC(CCCc7cccc8c7n(C)c(=O)n8C7CCC(=O)NC7=O)CC6)CC5)N=C4C(F)F)c3n2)C[C@H](C)O1` (stereo partly shown) [I-543] the same measures were below 10 nM, 10 to 100 nM and below 1 nM.
Regarding `Cn1c(=O)n(C2CCC(=O)NC2=O)c2cccc(C#CCOC3CCN(C[C@H]4CC[C@H](n5cc(NC(=O)c6cnn7ccc(N8C[C@H]9CC[C@@H](C8)O9)nc67)c(C(F)F)n5)CC4)CC3)c21` (stereo partly shown) [I-547], the half-maximal degradation concentration (DC50) in assay [1] (setting [8]) and in assay [2] (setting [9]) was below 10 nM each time. Further, the IC50 in assay [3] is 1 to 10 nM.
For `C[C@H]1CN(c2ccn3ncc(C(=O)NC4=NC([C@H]5CC[C@H](CN6CCC(CC#Cc7cccc8c7n(C)c(=O)n8C7CCC(=O)NC7=O)CC6)CC5)N=C4C(F)F)c3n2)C[C@H](C)O1` (stereo partly shown) [I-549], the DC50 in assay [1] (setting [8]) is below 10 nM; in assay [2] (setting [9]) it was 10 to 100 nM. The concentration for half-maximal inhibition (IC50) in assay [3] was 1 to 10 nM.
